Assay results: patent US10179120B2, “Dosage regimen of ferric trimaltol” (Iron Therapeutics Holdings AG, priority 2014, dated 2019)

Assays:
Type in all cases: in vivo, human
[1] = Example 1: treatment with 30 mg ST10 twice daily for up to 64 weeks; conditions: 30 mg twice daily for up to 64 weeks, 109 subjects
Protocol: 109 of the 128 subjects were treated with 30 mg ST10 twice daily for up to 64 weeks.

[2] = Example 1: 12-week placebo-controlled study of ST10 30 mg twice daily in IDA patients with IBD
Protocol: 128 patients suffering from IDA were randomised. Of this group […] were suffering from Crohn's disease and 53 were suffering from ulcerative colitis. All had mild to moderate disease activity and anaemia associated with IBD which was measured according to low haemoglobin levels ([…] for women and 13 g/dL (male) and were intolerant of ferrous iron, or it could not be used. There were no restrictions on the use of gastric pH modifying agents or medications.
60 patients were treated with ST10 at a 30 mg dose twice daily, before breakfast and prior to sleep on an empty stomach for a period of 12 weeks.
60 patients received a matched placebo capsule and were treated in the same way for the same period. Withdrawal from the study before 12 weeks occurred in seven ST10 subjects and nine placebo subjects. 87% of subjects completed 12 weeks of treatment.

[3] = Example 2: open-label, randomised, single and repeat dose Phase I pharmacokinetic study in subjects with iron deficiency; conditions: for reticulocyte haemoglobin, Mean change: baseline to day 8; for Transferrin saturation above baseline / mean serum total iron concentration above baseline: 6 h postdose
Protocol: These studies were primarily pharmacokinetic and conducted in subjects with iron deficiency having active inflammatory disease or acute chronic inflammation. An open-label, randomised, single and repeat dose parallel group Phase I pharmacokinetic study was carried out to evaluate the effect of single and repeated twice daily (bid) oral doses of ST10 at 30 mg, 60 mg and 90 mg for 8 days.
24 subjects with iron deficiency (with or without anaemia) were randomly allocated to one of the three ST10 dose groups as follows:
Group 1: 9 subjects received ST10, 30 mg twice daily for 7 days (days 1-7) plus a final 30 mg dose on the morning of day 8.
Group 2: 8 subjects received ST10, 60 mg twice daily for 7 days (days 1-7) plus a final 60 mg dose on the morning of day 8.
Group 3: 7 subjects received ST10, 90 mg twice daily for 7 days (days 1-7) plus a final 90 mg dose on the morning of day 8.
On day 1, following fasting for at least 1.5-2 hours beforehand, ST10 was administered (30 mg, 60 mg or 90 mg) and blood samples collected over the following 6 h for analysis. 60 mg was administered as two 30 mg capsules and 90 mg was administered as three 30 mg capsules, both as a single dose. Subjects continued dosing with ST10 on the evening of day 1 then every morning and evening for the next 6 days (Days 2 to 7).
On day 8 following fasting for at least 1.5-2 hours beforehand the last dosing of ST10 was administered (30 mg, 60 mg or 90 mg) and blood samples collected over the following 6 h for analysis.
On Days 1 and 8 blood samples were collected predose (0 h=time of ST10 dose) and at 5 minutes (for NTBI only), 15 minutes, 30 minutes, 45 minutes, and 1, 1.5, 2, 3, 4 and 6 h postdose.
Serum concentrations of transferrin, total iron binding capacity (TIBC), ferritin and soluble transferrin receptor; and reticulocyte haemoglobin concentrations (CHr) in whole blood were measured by central laboratories using appropriately validated methods.
These studies used transferrin saturation and total serum iron as measurements of iron uptake from the gut into the transport mechanisms. In addition serum ferritin was used as a measure of iron storage status at the end of the dosing period; all of these measurements are standard and well recognised.
One subject in the 60 mg dose group prematurely withdrew from the study on Day 7, so full profiles of all serum iron parameters were available in the 30 mg dose group for 9 subjects (days 1 and 8), in the 60 mg dose group 8 subjects on day 1 and for 7 subjects on day 8, and in the 90 mg dose group for 7 subjects (days 1 and 8).

ferric trimaltol [ST10]
subjects with adverse reactions [1]: 23%
improvement of haemoglobin levels ([2]; 30 mg twice daily, 8 weeks, p<0.0001): 1.75 g/dL
subjects with adverse events (mainly gastrointestinal) ([2]; 30 mg twice daily, 12 weeks): 38%
subjects with normalised haemoglobin levels ([2]; 30 mg twice daily, by week 12): More than 65%
tolerability ([2]; 30 mg twice daily, duration of the treatment): well tolerated
Mean Hb increase from baseline to Week 12 ([2]; 30 mg twice daily, empty stomach, 12 weeks): 2.26 g/dL
improvement of haemoglobin levels ([2]; 30 mg twice daily, week 4, p<0.0001): 1.05 g/dL
mean Hb at Week 12 ([2]; 30 mg twice daily, week 12): 13.20 g/dL
mean improvement in Hb, change from baseline compared to placebo ([2]; 30 mg twice daily, week 12, p<0.0001): 2.25 g/dL
mean Hb at baseline ([2]; ST10-treated subjects, baseline): 11.10 g/dL
blackened stools ([2]; patients in the study of Example 1): did not report blackened stools
reticulocyte haemoglobin, Baseline ([3]; 30 mg bid): 33.6
reticulocyte haemoglobin, Mean change ([3]; 30 mg bid): 0.9
reticulocyte haemoglobin, Day 8 ([3]; 30 mg bid): 34.6
reticulocyte haemoglobin, Baseline ([3]; 60 mg bid): 31.0
reticulocyte haemoglobin, Mean change ([3]; 60 mg bid): 3.3
reticulocyte haemoglobin, Day 8 ([3]; 60 mg bid): 34.1
reticulocyte haemoglobin, Baseline ([3]; 90 mg bid): 30.8
reticulocyte haemoglobin, Mean change ([3]; 90 mg bid): 3.0
reticulocyte haemoglobin, Day 8 ([3]; 90 mg bid): 33.9
Transferrin saturation above baseline ([3]; Day 1, 30 mg dose group): 17.0%
mean serum total iron concentration above baseline ([3]; Day 1, 30 mg dose group): 11.8 µmol/L
Transferrin saturation above baseline ([3]; Day 1, 60 mg dose group): 47.3%
mean serum total iron concentration above baseline ([3]; Day 1, 60 mg dose group): 33.0 µmol/L
Transferrin saturation above baseline ([3]; Day 1, 90 mg dose group): 33.3%
mean serum total iron concentration above baseline ([3]; Day 1, 90 mg dose group): 24.3 µmol/L
Transferrin saturation, average maximum value ([3]; Day 1, 30 mg dose group): 45.6%
serum total iron concentration, average maximum ([3]; Day 1, 30 mg dose group): 32.3 µmol/L
Transferrin saturation, average maximum value ([3]; Day 1, 60 mg dose group): 69.8%
serum total iron concentration, average maximum ([3]; Day 1, 60 mg dose group): 49.1 µmol/L
Transferrin saturation, average maximum value ([3]; Day 1, 90 mg dose group): 67.3%
serum total iron concentration, average maximum ([3]; Day 1, 90 mg dose group): 48.7 µmol/L
Mean serum ferritin ([3]; day 1, 30 mg dose group): around 15 μg/L
Mean serum ferritin ([3]; day 1, 60 mg dose group): ~10 µg/L
Mean serum ferritin ([3]; day 1, 90 mg dose group): ~13 µg/L
Mean serum ferritin ([3]; day 8, 30 mg dose group): ~22 µg/L
Mean serum ferritin ([3]; day 8, 60 mg dose group): ~22 µg/L
Mean serum ferritin ([3]; day 8, 90 mg dose group): ~32 µg/L
tolerability ([3]; doses of 30 mg and above): well tolerated
